Test results from BindingDB's records for PubMed 3016248 (The Johns Hopkins University, 1986).
Several values for one entry are separate records, joined by “and”; a condition that tells them apart may be missing. Equal entries are not always repeated.

Target: Glutamate receptor ionotropic, NMDA 1 (Rattus norvegicus, UniProt P35439)

Structure (SMILES): CC1(C2(C)COC(c3ccccc3)(c3ccccc3)O2)CCCCN1 (stereo unspecified) [CAS_4792-18-1]
- Ki: 2.22 µM and 2.34 µM and > 10 µM and 3.79 µM
